Test results reported in patent US20210077529A1, “T-CELL EXHAUSTION, METHODS & COMPOSITIONS RELATING THERETO” (MEMORIAL SLOAN KETTERING CANCER CENTER, priority 2018, published 2021).
“Also recorded” adds a separate entry of the source.

Legend:
Assay type in all cases: cell-based, mouse
Tcf7 = Tcf7 expression in chronically stimulated T-cells (real-time quantitative PCR); conditions: chronically stimulated CD3+ T cells, 8 days, 10 mM N-acetylcysteine
Description: FIG. 16A-B. N-acetylcysteine restores T-cell memory. Isolated CD3+ T cells were stimulated acutely or chronically as described herein. […] Tumor-infiltrating T-cells from patients with melanoma who received checkpoint inhibitors were extracted and analyzed by single-cell RNA-seq. […] The in vitro system that developed and described herein allowed for metabolic evaluations that led directly to the identification of oxidative stress as a hallmark of T-cell exhaustion. We therefore evaluated whether adding N-acetylcysteine (10 mM) to T-cell media every 48 hours during days 2-8 of chronic stimulation would be sufficient to reverse the effects of chronic stimulation on T-cell growth and effector function. […] FIGS. 12-16. Moreover, this strategy was also effective in reversing the exhaustion of chimeric antigen receptor (CAR) T-cells. For this assay, T-cells retrovirally infected to express a chimeric antigen receptor targeting CD19 were adoptively transferred into mice who had previously received A20 B-cell lymphoma cells. This protocol is known to generate “exhausted” CAR T-cells by Day 14 following CAR T-cell transfer. […] FIG. 16. To determine this, T-cells that had been acutely or chronically stimulated in the presence or absence of 10 mM N-acetylcysteine were assessed for Tcf7 expression via real-time quantitative PCR. […]

[1] = tested on: chronically stimulated T-cells; experiment: Cytokine production of chronically stimulated T-cells after re-stimulation (flow cytometry); conditions: CD3+ T cells, 8 days of culture, N-acetylcysteine 10 mM
Procedure: (§1) FIG. 14A-D. N-acetylcysteine reverses endogenous T-cell exhaustion. Isolated CD3+ T cells were stimulated acutely or chronically as described elsewhere herein in the without anti-PD-L1 (FIG. 14A) or in presence or absence of anti-PD-L1 (FIG. 14B) and/or N-acetylcysteine (10 mM) (FIG. 14C). Following 8 days of culture, cells were re-stimulated for cytokine production (above) or co-cultured with tumor cells expressing specific antigen.
The expression of the inhibitory receptors PD-1, LAG-3, and PD-L1 and the effector cytokines IFNγ, TNFα and IL2 was analyzed by flow cytometry. Briefly, cells that were stimulated acutely or chronically for 8 days as described herein were re-stimulated after overnight rest using 50 ng/mL phorbol myristate acetate (PMA) and 500 ng/mL ionomycin. […]
The in vitro system that developed and described herein allowed for metabolic evaluations that led directly to the identification of oxidative stress as a hallmark of T-cell exhaustion. We therefore evaluated whether adding N-acetylcysteine (10 mM) to T-cell media every 48 hours during days 2-8 of chronic stimulation would be sufficient to reverse the effects of chronic stimulation on T-cell growth and effector function. […] To determine this, T-cells that had been acutely or chronically stimulated in the presence or absence of 10 mM N-acetylcysteine were assessed for Tcf7 expression via real-time quantitative PCR. […]

exhausted CAR-T cells [2] = experiment: Proliferative capacity of exhausted CD19-specific CAR-T cells isolated from lymphoma-bearing mice; conditions: exhausted CD19 CAR-T cells isolated 14 days after transfer into A20 lymphoma mice; 10 mM in culture media
Description: (§2) FIG. 15A-C N-acetylcysteine reverses CAR-T cell exhaustion. Exhausted CAR-T cells were generated by transferring CD19-specific CAR-T cells into mice bearing CD19-expressing A20 lymphoma cells. After 14 days, CAR-T cells were isolated from mouse spleens and interrogated for proliferative capacity, oxidative stress, and cytokine production. […] The in vitro system that developed and described herein allowed for metabolic evaluations that led directly to the identification of oxidative stress as a hallmark of T-cell exhaustion. We therefore evaluated whether adding N-acetylcysteine (10 mM) to T-cell media every 48 hours during days 2-8 of chronic stimulation would be sufficient to reverse the effects of chronic stimulation on T-cell growth and effector function. […] FIGS. 12-16. Moreover, this strategy was also effective in reversing the exhaustion of chimeric antigen receptor (CAR) T-cells. For this assay, T-cells retrovirally infected to express a chimeric antigen receptor targeting CD19 were adoptively transferred into mice who had previously received A20 B-cell lymphoma cells. This protocol is known to generate “exhausted” CAR T-cells by Day 14 following CAR T-cell transfer. […] FIG. 16. To determine this, T-cells that had been acutely or chronically stimulated in the presence or absence of 10 mM N-acetylcysteine were assessed for Tcf7 expression via real-time quantitative PCR. […]

[3] = tested on: chronically stimulated T-cells; experiment: Proliferation of chronically stimulated T-cells (polyclonal in vitro exhaustion model, Coulter counter counts); conditions: CD3+ T cells, chronic anti-CD3/anti-CD28 stimulation days 2-8, 10 mM N-acetylcysteine
Procedure: FIG. 13A-B. N-acetylcysteine restores proliferation of chronically stimulated T-cells. FIG. 13A—schematic representation of model/method. Isolated CD3+ T cells were stimulated for 2 days with plate-bound anti-CD3 and anti-CD28. Following 2-day stimulation, cells were either incubated in IL-2 alone or serially re-plated on plates coated with anti-CD3 and anti-CD28 every 2 days for an additional 6 days in the presence or absence of 10 mM N-acetylcysteine. Cells were counted every 2 days using a Coulter counter. […] FIG. 3A and FIG. 3F provide schematic representations of a polyclonal T cell exhaustion model in which a generalized TCR and CD28 stimulus is used. Utilizing a generalized TCR and CD28 stimulus has multiple advantages. […] We therefore evaluated whether adding N-acetylcysteine (10 mM) to T-cell media every 48 hours during days 2-8 of chronic stimulation would be sufficient to reverse the effects of chronic stimulation on T-cell growth and effector function. […] To determine this, T-cells that had been acutely or chronically stimulated in the presence or absence of 10 mM N-acetylcysteine were assessed for Tcf7 expression via real-time quantitative PCR. […]

exhausted CAR-T cells [4] = experiment: Oxidative stress (reactive oxygen species) in exhausted CAR-T cells; conditions: exhausted CD19 CAR-T cells isolated 14 days after transfer, re-stimulated with anti-CD3 and anti-CD28; 10 mM
Description: as §2

[5] = tested on: chronically stimulated T-cells; experiment: Intracellular ophthalmate levels in chronically stimulated T-cells (LC-MS); conditions: chronically stimulated CD3+ T cells, 8 days, 10 mM N-acetylcysteine
Procedure: FIG. 18A-C. Ophthalmate is a biomarker for oxidative stress in exhausted T-cells and is reversed by N-acetylcysteine. Isolated CD3+ T cells were stimulated acutely or chronically as described herein in the presence or absence of N-acetylcysteine (10 mM). After 8 days, cells were analyzed for intracellular ophthalmate levels by LC-MS. […] Ophthalmate levels were higher in chronically stimulated T-cells (FIG. 18B) and this was reversed by administration of N-acetylcysteine (FIG. 18C).

exhausted CAR-T cells [6] = experiment: Cytokine production of exhausted CAR-T cells; conditions: exhausted CD19 CAR-T cells isolated 14 days after transfer; 10 mM
Description: as §2

[7] = tested on: tumor cells expressing specific antigen; experiment: Killing of tumor cells expressing specific antigen by chronically stimulated T-cells (co-culture)
Procedure: as §1
Ultimately, the hallmark of T-cell exhaustion in the context of both chronic viral infections and cancer requires a loss of effector function, defined as the absence of target cell killing. Therefore, it was imperative to establish that exhausted cells generated using this in vitro system were not able to kill target cells. […] 24 hours later luminescence was measured using a luminometer. Killing efficacy was determined by luminescence relative to B16 cells co-cultured with T-cells in the absence of specific peptide.
The in vitro system that developed and described herein allowed for metabolic evaluations that led directly to the identification of oxidative stress as a hallmark of T-cell exhaustion. We therefore evaluated whether adding N-acetylcysteine (10 mM) to T-cell media every 48 hours during days 2-8 of chronic stimulation would be sufficient to reverse the effects of chronic stimulation on T-cell growth and effector function. […]

Q: What does the source list for `CC(=O)N[C@@H](CS)C(=O)O` [N-acetylcysteine]?
A: Tcf7 expression (memory marker) (Tcf7): restored Tcf7 expression; also recorded: largely restored; cytokine production of chronically stimulated T-cells [1]: effectively reversed; also recorded: fully reverse; CAR-T cell proliferation (exhausted CAR-T cells [2]): enhanced CAR-T cell proliferation; also recorded: allowed CAR T-cells to proliferate; T-cell proliferation under chronic stimulation [3]: fully reverses the impairment in proliferation; also recorded: fully reverse; oxidative stress (reactive oxygen species) in CAR-T cells (exhausted CAR-T cells [4]): reducing oxidative stress; also recorded: could be reversed; intracellular ophthalmate levels [5]: reversed; CAR-T cell cytokine production (exhausted CAR-T cells [6]): enhanced; also recorded: allowed CAR T-cells to proliferate and produce cytokine; anti-PD-1 responsiveness of chronically stimulated T-cells ([7]; 10 mM N-acetylcysteine every 48 hours during days 2-8 of chronic stimulation): fully restored; tumor / target cell killing by chronically stimulated T-cells ([7]; 8 days of culture, co-cultured with tumor cells expressing specific antigen, N-acetylcysteine 10 mM): effectively reversed; also recorded: fully restored
